Tests used:
[1] = system: PIK3CA-mutant or amplified tumor xenograft models; experiment: In vivo antitumor activity in tumor xenograft models; conditions: xenograft models such as breast, head and neck, and ovarian cancers
Source text: (§1) (hereinafter, “Compound I”). […] As of Mar.

[2] = system: advanced solid malignancies carrying an alteration in the PIK3CA gene; experiment: Phase I clinical trial, single agent treatment, radiologic response (RECIST 1.0); type: in vivo, human; conditions: out of 131 patients evaluable for radiologic response, as of Mar. 10, 2014
Source text: as §1

In the case of `Cc1nc(NC(=O)N2CCC[C@H]2C(N)=O)sc1-c1ccnc(C(C)(C)C(F)(F)F)c1` [Compound I, (S)-Pyrrolidine-1,2-dicarboxylic acid 2-amide 1-({4-methyl-5-[2-(2,2,2-trifluoro-1,1-dimethyl-ethyl)-pyridin-4-yl]-thiazol-2-yl}-amide)], the “in vivo antitumor activity” value [1] is reported as “dose-dependent antitumor activity”, the “patients with partial response to treatment” value ([2]; PIK3CA-altered solid tumors) is reported as 15 patients and the “patients with stable disease” value [2] is reported as 68 patients.

From patent publication US20190314353A1, “Pharmaceutical Compositions Comprising Alpelisib” (Novartis AG, priority 2014, published 2019)
